In patent US20150025131A1 (priority 2013, published 2015):
≈ marks a conversion by molar mass, not a printed value. Entries after “also recorded” stand apart in the source; their conditions may differ.

Tests used:
[1] = test system: non-activated Jurkat cell proliferation; experiment: Jurkat T cell proliferation; assay type: cell-based; conditions: Homo sapiens; non-activated Jurkat cells; read-out: Jurkat T cell Proliferation (IC50 μg /mL)
Description: In order to monitor the effect of this compound on cellular immune response particularly on T cells, the compound was tested on thymidine incorporated T cell proliferation assay.

[2] = test system: rheumatoid factor; experiment: Adjuvant induced arthritis model, serum RA factor; assay type: in vivo, Sprague Dawley rats; conditions: AIA rats, daily intraperitoneal; Patuletin 25 mg/kg, indomethacin 5 mg/kg
Description: (§1) All studies were carried out using Female Sprague Dawley (SD) rats weighing 150-250 gms. Animals were kept at 21±2° C. and on a 12-h light/dark cycle, received standardized pelleted diet and tap water. Experiments were performed under the ethical guidelines of the International Association for the study of pain in conscious animals. Each group contains 12 animals with randomly distributed weights into each treatment group.
(§2) Arthritis was induced by injecting freshly prepared 100 μL of 1 mg suspension of lyophilized Mycobacterium tuberculosis H37Ra (MT H37Ra; DIFCO Laboratories, Detroit, Mich., USA), subcutaneously at the rat tail base using sterile hypodermic needle. Inoculation was carried out under anesthesia with a combination of 20 mg/kg ketamine and 5 mg/kg xylazine, injected intraperitoneally. Compound and the reference drug were administered daily, intraperitoneally using sterile syringes. […]
Measurement of RA factor in rat serum was determined using Tina-quant RFII Kit (Roche Diagnostics, USA) and automated analyzers according to manufacturer's instructions. The test principle involves the reaction of latex bound heat inactivated IgG (antigen) with RF antibodies in the sample to form Ag/Ab complex resulting in agglutination which can be measured turbidimetrically.

[3] = test system: PHA activated T cells isolated from human peripheral blood; experiment: Thymidine incorporation T cell proliferation assay (PHA activated); assay type: cell-based; conditions: Homo sapiens, T-cell, 72 h, read-out: Human T cell proliferation (IC50 μg/mL)
Description: Heparinized blood was obtained by vein puncture aseptically from healthy volunteers (25-38 years age). Blood (10 mL) was mixed with incomplete RPMI, layered on 5 mL of Lymphocyte separation medium and centrifuged at 400 g for 20 min at room temperature. Buffy layer was collected and mixed with incomplete RPMI and centrifuged at 4° C. for 10 min at 300 g. Cells were obtained after the RBCs (if any) lysis using hypotonic solution, and washed at 4° C. for 10 min at 300 g. The cells were then suspended in complete RPMI containing 5% FBS and their concentration was adjusted to 2×10^6 cells/mL for T-cell proliferation assay.
Cell proliferation assay was conducted through standard thymidine incorporation technique. Briefly, isolated T-cells from peripheral blood of healthy individuals were plated at a concentration of 2×10^6 cells/mL in a round bottom 96-well tissue culture plates. Cells were stimulated with 7.5 μg/mL of PHA. […] The plate was then incubated for 72 hours at 37° C. in 5% CO2 incubator. After 72 hours, cultures were pulsed with 0.5 μCi/well tritiated thymidine (Amersham Pharmacia Biotech), and further incubated for 18 h. Cells were harvested onto a glass fiber filters using cell harvester (Innotech, Dottikon, Switzerland). The level of the thymidine incorporated into the cells was measured by a liquid scintillation counter (LS 6500, Beckman Coulter, Fullerton, Calif., USA). Results were expressed as mean count per minute (CPM). The inhibitory activity of compounds on T-lymphocyte proliferation was calculated using the following formula: […]

[4] = test system: serum IL-1β; experiment: Adjuvant induced arthritis model, serum IL-1β; assay type: in vivo, Sprague Dawley rats; conditions: AIA rats, daily intraperitoneal; Patuletin 25 mg/kg, indomethacin 5 mg/kg
Description: as §1
as §2, with “syringes. The positive control received vehicle (5% DMSO+PBS) or saline only; treatment groups received test compounds (25 mg/kg), whereas reference group received indomethacin (5 mg/kg). The doses of the test compounds were selected after preliminary dose finding studies.” for “syringes.”
(§3) The quantitative measurement of TNF-α and IL-1β was done in serum of all groups of animals including arthritic and non-arthritic using commercial ELISA assay kits (Abcam, USA) according to the manufacturer's instructions. […]

[5] = test system: serum TNF-α; experiment: Adjuvant induced arthritis model, serum TNF-α; assay type: in vivo, Sprague Dawley rats; conditions: AIA rats, daily intraperitoneal; Patuletin 25 mg/kg, indomethacin 5 mg/kg
Description: as §1
as §2, with “syringes. The positive control received vehicle (5% DMSO+PBS) or saline only; treatment groups received test compounds (25 mg/kg), whereas reference group received indomethacin (5 mg/kg). The doses of the test compounds were selected after preliminary dose finding studies.” for “syringes.”
as §3

[6] = test system: IL-2 production; experiment: IL-2 cytokine production; assay type: cell-based; conditions: read-out: IL-2 inhibition (IC50 μg/mL)
[7] = MTT cytotoxicity assay, NIH 3T3; assay type: cell-based, mouse; conditions: mouse, NIH 3T3 mouse embryo fibroblast cells, 48 h incubation, read-out: Cytotoxicity (IC50 μg/mL) NIH 3T3 cells
Description: (§4) Cell cytotoxicity assay was performed using three different cell lines NIH 3T3 (mouse embryo, fibroblast cells), CC1 (rat, epithelial, liver cell) and MDBK (bovine kidney) cells using MTT (3-[4,5-dimethylthiazole-2-yl]-2,5-diphenyl-tetrazolium bromide) colorimetric assay. Briefly 3T3 were grown in DMEM, supplemented with 10% of fetal bovine serum (FBS), and 1% penicillin-streptomycin whereas CC1 (rat epithelial liver cells) were cultured in EMEM, 2 mM Glutamine, 1% Non-Essential Amino Acids (NEAA), 20 mM HEPES, 10% Foetal Bovine Serum (FBS) and 1% penicillin-streptomycin, and MDBK cells were grown in 10% of fetal bovine serum (FBS) in 75 cm^2 flask, and incubated in 5% CO2 incubator at 37° C. until they attain 70% confluency. Cells were then harvested by centrifuging at 200 g for 5 min at 25° C., counted using heamocytometer and their concentration was adjusted to 6×10^4 cells/mL. 100 μL of Cells were then plated in 96 well plate and incubated overnight. Next day the supernatant was carefully removed and 200 μL of fresh medium was added with three different concentration of compound (1, 10, 50) μg/mL. […] The extent of MTT reduction to formazan within cells was calculated by measuring the absorbance at 540 nm; using a micro plate reader (Spectra Max plus 340, Molecular Devices, Calif., USA). […] The percent inhibition was calculated by using the following formula: […]

[8] = test system: NIH 3T3 mouse fibroblast cells; experiment: MTT cytotoxicity assay, NIH 3T3; assay type: cell-based
Description: as §4

SMILES: COc1c(O)cc2oc(-c3ccc(O)c(O)c3)c(O)c(=O)c2c1O [Patuletin, 3,5,7,3′,4′-pentahydroxy-6-methoxy flavones]
- IC50 [1]: 3.47 µg/mL (≈ 10.4 µM)
- level of RA factor (rheumatoid factor) in serum versus arthritic control group [2]: marked decrease
- IC50 [3]: 1.2 µg/mL (≈ 3.61 µM)
- level of IL-1β in serum versus arthritic control group [4]: significant decrease; also recorded: marked decrease
- level of TNF-α in serum versus arthritic control group [5]: marked decrease
- IC50 [6]: 14.8 µg/mL (≈ 44.5 µM)
- IC50 at 48 h [7]: 36.4 ± 6.9 µg/mL (≈ 110 µM)
- cytotoxicity on NIH 3T3 mouse fibroblast cells (in words) [8]: no cytotoxicity
